What all share (assay type): functional
For assay [1], the system named is NCI-H226. Description: Growth inhibition of human NCI-H226 cells after 72 hrs by MTT assay. The note with it: NCI-H226, 72 h. (Tetrazolium assays rely on reduction of a dye to a coloured formazan, in cell work by metabolically active cells.)
The nature of assay [2]: Growth inhibition of human NPC-TW01 cells after 72 hrs by MTT assay. The following applies: NPC-TW01, 72 h.
The test system of assay [3] is Jurkat. Description: Growth inhibition of human Jurkat cells after 72 hrs by MTT assay.

Here are results for 27 compounds from ChEMBL document CHEMBL1821710, “Synthesis and antiproliferative evaluation of 3,5-disubstituted 1,2,4-triazoles containing flurophenyl and trifluoromethanephenyl moieties” (2011).

With `COC(=O)c1nc(C)n(-c2ccccc2)n1`, the GI50 in assay [1], in assay [2] and in assay [3] was above 100 µM throughout.

On to `COC(=O)c1nc(C)n(-c2ccccc2C(F)(F)F)n1`, for which the concentration for 50% growth inhibition (GI50) (usually the concentration at which growth is held to half of that of the control) was 6.13 µM in assay [1], above 100 µM in assay [2] and above 100 µM in assay [3].

`COC(=O)c1nc(C)n(-c2cccc(Br)c2)n1`: the GI50 in assay [1] is 7.35 µM; in assay [2], above 100 µM; in assay [3] it was above 100 µM.

On to `COC(=O)c1nc(C)n(-c2cccc(C(F)(F)F)c2)n1`, for which the GI50 is 14.3 µM in assay [1], above 100 µM in assay [2] and 10.6 µM in assay [3].

Consider `COC(=O)c1nc(C)n(-c2ccc(C(F)(F)F)cc2)n1`, for which the GI50 is 16.6 µM in assay [1], above 100 µM in assay [2] and 9.1 µM in assay [3].

In the case of `COC(=O)c1nc(C)n(-c2ccc(OC)cc2)n1`, the GI50 in assay [1] is above 100 µM; in assay [2], 9.92 µM; in assay [3], above 100 µM.

Regarding `COC(=O)c1nc(C)n(-c2ccc(Cl)cc2)n1`, the results for the GI50 in assay [1], in assay [2] and in assay [3] were 84 µM, 17.5 µM and 65.9 µM, respectively.

As for `COC(=O)c1nc(C)n(-c2ccc(F)cc2)n1`, the values for the GI50 in assay [1], in assay [2] and in assay [3] were 11.7 µM, 15.2 µM and 8.7 µM, respectively.

With `CCc1nc(C(=O)OC)nn1-c1ccc(F)cc1`, the GI50 in assay [1] turned out to be 71.3 µM; in assay [2] it was 15.8 µM; in assay [3], 11 µM.

Regarding `COC(=O)c1nc(C(C)C)n(-c2ccc(F)cc2)n1`, the GI50 was 6.17 µM in assay [1], above 100 µM in assay [2] and above 100 µM in assay [3].

Turning to `CCCCc1nc(C(=O)OC)nn1-c1ccc(F)cc1`, the GI50 is 6.4 µM in assay [1], above 100 µM in assay [2] and above 100 µM in assay [3].

As to `COC(=O)c1nc(C2CC2)n(-c2ccc(F)cc2)n1`, the figures for the GI50 in assay [1], in assay [2] and in assay [3] were 16.3 µM, 95.9 µM and 9.42 µM, respectively.

Turning to `COC(=O)c1nc(C2CCCC2)n(-c2ccc(F)cc2)n1`, the GI50 in assay [1] was 70.5 µM; in assay [2], 10.4 µM; in assay [3], 9.55 µM.

Regarding `COC(=O)c1nc(C2CCCCC2)n(-c2ccc(F)cc2)n1`, the GI50 in assay [1] is 6.26 µM; in assay [2] it was 30.5 µM; in assay [3] it was above 100 µM.

In the case of `COC(=O)c1nc(-c2ccoc2)n(-c2ccc(F)cc2)n1`, the GI50 in assay [1] is 91.6 µM; in assay [2] it was 11.7 µM; in assay [3], 9.32 µM.

For the compound `COC(=O)c1nc(-c2ccsc2)n(-c2ccc(F)cc2)n1`, the GI50 in assay [1] stood at 6.94 µM; in assay [2], 10.7 µM; in assay [3] it was 54 µM.

For the compound `COC(=O)c1nc(-c2ccc[nH]2)n(-c2ccc(F)cc2)n1`, the GI50 amounted to 72 µM in assay [1], 9.58 µM in assay [2] and 9.01 µM in assay [3].

In the case of `COC(=O)c1nc(-c2ccccc2)n(-c2ccc(F)cc2)n1`, the GI50 in assay [1] amounted to 89.3 µM; in assay [2] it was 15.6 µM; in assay [3], 10 µM.

For the compound `COC(=O)c1nc(-c2ccc3ccccc3c2)n(-c2ccc(F)cc2)n1`, the GI50 was 79.3 µM in assay [1], above 100 µM in assay [2] and 18.5 µM in assay [3].

As to `COC(=O)c1nc(C2CCCC2)n(-c2ccc(C(F)(F)F)cc2)n1`, the values for the GI50 in assay [1], in assay [2] and in assay [3] were 5.71 µM, 56.4 µM and above 100 µM, respectively.

As for `COC(=O)c1nc(C2CCCCC2)n(-c2ccc(C(F)(F)F)cc2)n1`, the concentration for 50% growth inhibition (GI50) in assay [1] is 5.76 µM; in assay [2] it was above 100 µM; in assay [3], above 100 µM.

`COC(=O)c1nc(-c2ccoc2)n(-c2ccc(C(F)(F)F)cc2)n1`: the values for the GI50 in assay [1], in assay [2] and in assay [3] were 6.01 µM, above 100 µM and 97.2 µM, respectively.

As for `COC(=O)c1nc(-c2ccsc2)n(-c2ccc(C(F)(F)F)cc2)n1`, the figures for the concentration for 50% growth inhibition (GI50) in assay [1], in assay [2] and in assay [3] were 5.74 µM, 34.9 µM and above 100 µM, respectively.

Turning to `COC(=O)c1nc(-c2ccc[nH]2)n(-c2ccc(C(F)(F)F)cc2)n1`, the GI50 in assay [1] was 5.65 µM; in assay [2] it was above 100 µM; in assay [3], above 100 µM.

For the compound `CCOC(=O)c1nc(-c2ccc[nH]2)n(-c2ccc(C(F)(F)F)cc2)n1`, the GI50 is 5.61 µM in assay [1], 76.4 µM in assay [2] and above 100 µM in assay [3].

As for `CCOC(=O)c1nc(-c2ccc[nH]2)n(-c2ccc(F)cc2)n1`, the GI50 is 5.71 µM in assay [1], 64.3 µM in assay [2] and above 100 µM in assay [3].

`CN(Cc1cnc2nc(N)nc(N)c2n1)c1ccc(C(=O)N[C@@H](CCC(=O)O)C(=O)O)cc1` [METHOTREXATE]: the GI50 in assay [1] was determined as 10.2 µM; in assay [2], 0.1 µM; in assay [3], 1.25 µM.
